Test results from patent publication EP0958835A1, “PREVENTIVE/REMEDY FOR FREQUENT URINATION AND URINARY INCONTINENCE” (Kissei Pharmaceutical Co., Ltd., priority 1996, dated 1998).

Test system: human bladder smooth muscle
Assay: Relaxing effect on resting tension of isolated human bladder smooth muscle strips
Type: cell-based
Conditions: drug added cumulatively about every 5 minutes, 0 % = 10^-5 M forskolin, Figure 1
Procedure: Measurement of the contractile force of human bladder smooth muscle strips (1) Smooth muscle preparations Human bladders were obtained from patients undergoing cystectomy and were carefully dissected free from the surrounding fat and mucosa. Preparations were prepared by cutting the bladder smooth muscle longitudinally into about 1.5 cm in length and about 3 mm in width and used. […] Conditions for measurement; The bathing solution was maintained at 37 °C and gassed with a mixture of 95 % O2 and 5 % CO2. Drug Treatment; The drug was cumulatively added about every 5 minutes. Evaluation of the drug effects; The drug-induced relaxation was evaluated. The tension before the drug treatment is indicated as 100 %, and the tension after treatment with 10^-5 M forskolin which produces maximal bladder relaxation is indicated as 0 %. According to the method described above, the bladder relaxing effects of the following drugs were measured using human bladder smooth muscle.

Row | SMILES | relaxing effects on bladder smooth muscle
1 | CC(C)(C)NCC(O)COc1cccc2[nH]c(=O)[nH]c12.Cl (racemic) [CGP-12,177A hydrochloride, (±)-4-[3-[(1,1-dimethylethyl)-amino]-2-hydroxypropoxy]-1,3-dihydro-2H-benzimidazol-2-on hydrochloride] | apparent relaxing effects
2 | CC(C)NCC(O)c1ccc(O)c(O)c1 (centres unmarked) [isoproterenol] | apparent relaxing effects
